Test [1] relates to MCF-7 cell line. The following applies: cited from earlier work.
Test [2] deals with MDA-MB-231. The note with it: 500 nM, 72 hours of exposure; ref 13 (Foster et al. 2008); cited from earlier work.
The test system of test [3] is tubulin. The experiment in a line: Tubulin polymerization assay (DAPI fluorescence). Type of test: biochemical. The following applies: for EC50: in vitro tubulin polymerization, read-out: tubulin polymerization inhibition EC50. Here is the method: Briefly, microtubule assembly was conducted in a half area 96 well black plate using a microplate reader FLUOstar OPTIMA (BMG Labtechnologies). […] Following 10 min incubation, assembly was initiated by injection of GTP and MgCl2 to a final concentration of 1 mM and 5 mM respectively, yielding a reaction volume of 100 µl. The excitation and emission wavelengths were set at 360 and 450 nm, respectively, and the fluorescence of microtubule-bound DAPI was monitored as a function of time at 37°C. Fluorescence signal at time 0 for each well was subtracted from each of the subsequent fluorescence readings, [22].

The test system of test [4] is human umbilical vein endothelial cells (HUVECs). The following applies: 500 nM, 72 hours of exposure; ref 13 (Foster et al. 2008); cited from earlier work.
Test [5] relates to HeLa cells. In words: Cell morphology by transmission electron microscopy. The format is cell-based, human. The following applies: 24 h. Here is the method:
The in vitro influence of ESE-15-one, EMBS and ESE-16 on cell morphology was determined after exposure for 24 h using transmission electron microscopy (TEM). […] After each fixation step the samples were rinsed 3 times in 0.0075 M sodium phosphate buffer (pH 7.4). Samples were dehydrated using increasing concentrations of ethanol (30%, 50%, 70%, 90%, and 3×100%) and embedded in Quetol resin, sectioned with a microtome and placed on copper discs. Sections were contrasted with 4% aqueous uranyl acetate and Reynolds' lead citrate and viewed with a JOEL JEM 2100F transmission electron microscope (Electron Microscopy Unit, University of Pretoria, South Africa).

The test system of test [6] is caspase 3. The following applies: HeLa cells; another study conducted in our laboratory (data not shown); cited from earlier work.
Test [7] deals with HeLa cells. The experiment in a line: Cell number determination by crystal violet staining. Type of test: cell-based, human. The note with it: for cell growth: 24 h. As for the experimental part:
Crystal violet is a method used to determine the number of cells by staining the deoxyribonucleic acid (DNA). Gillies et al. (1986) used crystal violet to quantify cell number in monolayer cultures as a function of the absorbance of the dye taken up by the cells. A dose-dependent study was chosen with a concentration range of 0.1–25 μM since it was previously observed in our laboratory that this concentration series exerts antiproliferative activity in HeLa cells. Exponentially growing HeLa cells were seeded in 96 well tissue culture plates at a cell density of 5,000 cells per well. Cells were incubated at 37°C in a humidified atmosphere containing 5% CO2 for 24 h to allow for attachment. To establish the starting number of cells, a baseline determination was conducted before exposure. Subsequently, the medium was discarded and cells were exposed to the sulphamoylated 2ME2 analogues at a concentration series of 0.1–25 μM for the 24 h at 37°C. Vehicle-treated controls were also included. Cells were fixed with 100 µl of 1% gluteraldehyde (incubation for 15 min at room temperature). Gluteraldehyde was discarded and cells were stained using 100 µl 0.1% crystal violet (incubated at room temperature for 30 min). Excedent crystal violet was discarded and the 96 well plate was submersed under running water. Cells were solubilized using 200 µl 0.2% Triton X-100 and incubated at room temperature for 30 min. Solution (100 µl) was transferred to a new microtitre plate. Afterwards, the absorbance was determined at 570 nm using an ELx800 Universal Microplate Reader available from Bio-Tek Instruments Inc. (Vermont, United States of America).

For test [8], the system named is caspase-6. In words: Caspase 6 colorimetric assay. Type of test: cell-based, human. The following applies: 0.5 μM, 24 h. Here is the method: (§1) Possible activation of caspase 3, -6 and -8 was investigated by means of caspase 3, caspase 6 and FLICE/caspase 8 colorimetric kits, respectively. Cells (1,000,000) were seeded with an overnight attachment policy. After 24 h of exposure to 0.5 μM of the sulphamoylated 2ME2 analogues, cells were detached with trypsin and centrifuged at 13,000× g. Cells (500,000) were resuspended in 50 µl of chilled cell lysis buffer and incubated on ice for 10 min. Cells were centrifuged at 10,000×g for a min. Supernatant was transferred to a fresh tube and put on ice. After determination of the protein concentration using the bicinchoninic acid (BCA) protein assay (Thermo Fisher Scientific, Johannesburg, South Africa), 100 µg protein/50 µl cell lysis buffer was mixed with 50 µl 2X reaction buffer (containing 10 mM Dithiothreitol (DTT)). Ac-Asp-Glu-Val-Asp-p-nitroanilide (Ac-DEVD-pNA) (5 µl of 4 mM) (caspase-3-specific substrate), or 5 µl 4 mM […] (Ac-VEID-pNA) (caspase-6-specific substrate), or 5 µl 4 mM Ac-Ile-Glu-Thr-Asp-p-nitroanilide (Ac-IETD-pNA) (caspase-8-specific substrate) was added and the mixture was incubated at 37°C for 120 min (200 µM final concentration). Absorbance was determined at 405 nm on the ELx800 Universal Microplate Reader available from Bio-Tek Instruments Inc. (Vermont, United States of America).

Test [9] has as its system MDA-MB-231 cells. The experiment in a line: Double immunofluorescence of intracellular microtubules. The format is cell-based, human. The note with it: MDA-MB-231, 24 h; 0.189 μM ESE-15-one, 0.5 μM EMBS and ESE-16, 1μM colchicine. As for the experimental part: (§2) In order to visualize the effect of the 2ME2 analogues on microtubule dynamics and integrity, a double immunofluorescence technique using antibodies against tyrosinated and detyrsosinated tubulin was conducted as described by Paturle-Lafanechère et al. (2004). HeLa and MDA-MB-231 cells were seeded onto sterilized coverslips and allowed to grow to 80% confluency for 48 h. Cells were exposed to 0.189 μM ESE-15-one, 0.5 μM EMBS and ESE-16 along with DMSO (negative control) and 1μM colchicine as a positive control for 24 h. Cells were permeablised permeabilized with warmed OPT buffer (80 mmol/L Pipes, […], […], 0.5% Triton X-100 and glycerol 10%, pH 6.8), followed by fixation in ice-cold methanol at −20°C and were subsequently incubated with the primary antibody cocktail (PBS containing anti-detyrosinated tubulin (L4), anti-[…], BSA 0.3%, tween 0.1%). After incubation, cells were incubated with the secondary antibodies, namely Alexa 488 (Invitrogen) and Cy3 (Jackson ImmunoResearch laboratories). Samples were visualized using a Zeiss AxioImager Z1 microscope controlled by Axiovision softwared (Carl Zeiss) (X63 oil objective). Images were captured using an Ocra R2 N/B camera (Hamamatsu) and assessed for microtubule integrity and ratio of tyrosinated to detyrosinated tubulin.

Test [10] has as its system HeLa cells. Described as above. The format is cell-based, human. The note with it: 24 h, 0.189 μM ESE-15-one, 0.5 μM EMBS and ESE-16, 1μM colchicine. As for the experimental part:
as §2

Test [11] has as its system caspase-8. The experiment in a line: FLICE/caspase 8 colorimetric assay. Type of test: cell-based, human. The note with it: 0.5 μM, 24 h. Here is the method: as §1
Test [12] concerns HeLa cells. The experiment in a line: Mitochondrial membrane potential assay (Mitocapture, flow cytometry). The format is cell-based, human. The note with it: 0.5 μM analogues (2-methoxyestradiol-bis-sulphamate 0.55 μM), 24 h. As for the experimental part:
Cells (500,000) were seeded with an overnight attachment policy. After 24 h of exposure to 0.5 μM of the sulphamoylated 2ME2 analogues, cells were detached using trypsin and centrifuged at 13,000×g.
(In general: A flow cytometer gives signals particle by particle.)

Test [13] relates to MDA-MB-231 cells. The experiment in a line: Cytochrome c release (FlowCellect, flow cytometry). Type of test: cell-based, human. The note with it: MDA-MB-231, 0.5 μM analogues (2-methoxyestradiol-bis-sulphamate 0.55 μM), 24 h. As for the experimental part:
(§3) This kit utilizes a unique set of buffers that selectively permeabilizes the […] without affecting the mitochondrial membrane. […] Cells (500,000) were seeded with an overnight attachment policy. After 24 h of exposure to 0.5 μM of the sulphamoylated 2ME2 analogues, cells were detached using trypsin and centrifuged at 13,000×g. Cells (500,000) were resuspended in PBS, centrifuged and resuspended in permeabilization buffer (according to supplier's instructions) for 10 min on ice. Subsequently cells were centrifuged, resuspended in 100 µl fixation buffer (according to supplier's instructions) for 20 min at room temperature, centrifuged again and resuspended in blocking buffer (150 µl). After another centrifugation step, cells were centrifuged and resuspended in blocking buffer (twice). Anti-cytochrome c-FITC (10 µl) was added to each sample and samples were incubated for 30 min at room temperature. Cells were centrifuged and blocking buffer (100 µl) was added. After centrifugation, blocking buffer (200 µl) was added to the samples for analysis via flow cytometry (FC500 System flow cytometer, Beckman Coulter South Africa (Pty) Ltd). Cells presenting with cytochrome c release were detected in the fluorescein isothiocyanate (FITC) channel (FL1) showing diffused green fluorescence. Data from at least 10 000 cells were analyzed by means of Cyflogic version 1.2.1 software (Pertu Therho, Turko, Finland).

For test [14], the system named is HeLa cells. In words: Cytochrome c release (FlowCellect, flow cytometry). The format is cell-based, human. The following applies: 0.5 μM analogues (2-methoxyestradiol-bis-sulphamate 0.55 μM), 24 h. As for the experimental part:
as §3

“Also recorded” adds a separate entry of the source.

Broadly, the EC50 is the concentration needed to bring the measured effect to its halfway point. Regarding `COc1cc2c(cc1OS(N)(=O)=O)CC[C@@H]1[C@@H]2CC[C@]2(C)[C@@H](OS(N)(=O)=O)CC[C@@H]12` [2-methoxyestradiol-bis-sulphamate, reference compound], in [1], the “concentration with antiproliferative activity” value is 0.1 to 1 µM. Further, the “inner mitochondrial membrane potential” value in test [2] was “depolarized”. Moreover, in [3], the EC50 is 11 µM. In [4], the “inner mitochondrial membrane potential” value was “depolarized”. Besides, in test [5], the “apoptotic bodies (TEM)” value is on record as “Apoptotic bodies were observed” and the “vacuoles (TEM)” value is “vacuoles”.

For `CCc1cc2c(cc1OS(N)(=O)=O)CC[C@@H]1[C@@H]2CC[C@]2(C)C=CC[C@@H]12` [ESE-16, 2-ethyl-3-O-sulphamoyl-estra-1,3,5 (10) 16-tetraene], in test [6], the “caspase 3 activity increase” value was 8 fold. The cell growth in test [7] (0.1 µM) was 45.59%; in test [7] (0.5 µM, compared to vehicle-treated cells) it was 45.30%. Further, in test [7] (24 h of exposure), the “concentration that significantly inhibits HeLa proliferation” value is 0.5 µM. In addition, the “caspase-6 activity ratio compared to vehicle-treated cells” value in [8] stood at 3.2. The “microtubule integrity” value in [9] was “detyrosinated microtubule fragments”; in test [10] it was “microtubule abrogation; also recorded: complete microtubule depolymerisation”. Moreover, in test [3] (in vitro), the “effect on tubulin polymerization” value is “more pronounced effect on tubulin polymerization; also recorded: pronounced effect comparable with that of colchicine”. Besides, the EC50 in [3] came to 5 µM. For the same molecule, in test [11], the “caspase-8 activity increase compared to vehicle-treated cells” value was 1.7 fold. In addition, in test [12], the “cells with reduced mitochondrial potential” value is 68.43%. In addition, the “apoptotic bodies (TEM)” value in test [5] was “Apoptotic bodies were observed”. Besides, the “vacuoles (TEM)” value in test [5] is on record as “vacuoles”. In addition, in test [5] (compared to vehicle-treated cells), the “cell shrinkage (TEM)” value was “shrunken”. The “Cytochrome c in cytoplasm (cells with cytochrome c release)” value in test [13] stood at 30%; in [14] it was 10%.

`COc1cc2c(c(OC)c1OC)-c1ccc(OC)c(=O)cc1[C@@H](NC(C)=O)CC2` [colchicine, reference compound]: the “microtubule integrity” value is listed as “complete microtubule depolymerisation” in [9] and “only fragments of detyrosinated microtubules remaining; also recorded: complete microtubule depolymerisation” in test [10].

Values taken from article PMC3764137, “Sulphamoylated 2-Methoxyestradiol Analogues Induce Apoptosis in Adenocarcinoma Cell Lines” (PLoS ONE, 2013).
